For experiment [1], the target named is T1, Fatty acid synthase (Plasmodium falciparum) (UniProt Q965D7).
T1 sequence (whole entry): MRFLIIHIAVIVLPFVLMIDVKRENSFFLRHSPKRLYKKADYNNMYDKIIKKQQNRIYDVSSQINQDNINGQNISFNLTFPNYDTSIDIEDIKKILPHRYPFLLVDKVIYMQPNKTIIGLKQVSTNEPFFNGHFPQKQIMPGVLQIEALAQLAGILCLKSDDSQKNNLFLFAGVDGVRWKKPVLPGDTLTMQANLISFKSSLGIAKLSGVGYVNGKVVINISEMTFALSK
Nature of the experiment: Inhibition of Plasmodium falciparum FabZ assessed as trans-2-octenoyl-acyl carrier protein level by MALDI-TOF mass spectrometry.

In experiment [2] the test system is Plasmodium falciparum. Nature of the experiment: Inhibition of Plasmodium falciparum FabB/FabF assessed as C6-acyl carrier protein level by MALDI-TOF mass spectrometry.
Experiment [3] deals with Plasmodium falciparum. Nature of the experiment: Antiparasitic activity against Plasmodium falciparum. It counts as functional, organism-based.
Experiment [4] is described as follows: Inhibition of Plasmodium falciparum recombinant FabI A217V mutant.
The target of experiment [5] is T2, Enoyl-acyl-carrier protein reductase (Plasmodium falciparum, UniProt Q965D5).
T2 sequence (Q965D5 whole entry): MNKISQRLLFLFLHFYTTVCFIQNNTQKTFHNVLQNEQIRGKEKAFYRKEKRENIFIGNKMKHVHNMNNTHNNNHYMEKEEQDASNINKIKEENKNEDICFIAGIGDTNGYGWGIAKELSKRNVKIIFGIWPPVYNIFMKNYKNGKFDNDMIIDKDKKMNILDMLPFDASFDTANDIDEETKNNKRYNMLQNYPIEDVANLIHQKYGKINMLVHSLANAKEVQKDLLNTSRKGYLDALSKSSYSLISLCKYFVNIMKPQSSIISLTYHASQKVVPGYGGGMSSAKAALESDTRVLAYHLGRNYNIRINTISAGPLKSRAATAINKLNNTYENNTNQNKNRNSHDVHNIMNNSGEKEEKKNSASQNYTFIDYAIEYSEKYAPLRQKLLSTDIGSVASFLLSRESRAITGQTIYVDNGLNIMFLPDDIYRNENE
Description: Inhibition of Plasmodium falciparum recombinant FabI.

For experiment [6], the system named is Plasmodium falciparum. Description: Antiparasitic activity against Plasmodium falciparum in RBCs. The format is functional, organism-based.

Activity calls are given as the source filed them. The rule behind the calls is not given here.

As usually defined, the IC50 is the concentration that gives 50% inhibition. Broadly, the Ki is a measure of affinity in units of concentration, obtained from inhibition or displacement.

For the compound `Oc1ccc(Cl)cc1Oc1ccc(Cl)c2cccnc12`, the result in experiment [1] was Active.

For `C/C=C/C/C=C/CCC(=O)[C@H]1O[C@H]1C(N)=O` [CERULENIN], in the experiment with Plasmodium falciparum [2], the result was Active. Moreover, the IC50 in the experiment with Plasmodium falciparum [3] is 20 µM.

For the compound `Oc1cc(Cl)ccc1Oc1ccc(Cl)cc1Cl` [TRICLOSAN], the Ki in experiment [4] amounted to 0.232 µM. The results for the IC50 (in experiment [5]; in the experiment on Plasmodium falciparum [6]) were 0.07 µM and 0.7 µM, respectively.

For `O=C(CC(=O)C(F)(F)F)c1ccc([N+](=O)[O-])cc1`, the result in experiment [1] was Active.

For the origin of these results see ChEMBL document CHEMBL1157368, “Mass spectrometry-based systems approach for identification of inhibitors of Plasmodium falciparum fatty acid synthase” (Antimicrob Agents Chemother, 2007).
